Earlier results, collected in EP0396201A1 (priority 1989, dated 1990).

System: carbonic anhydrase
Conditions: carbonic anhydrase inhibitor, relative activity

times as active as p-aminobenzenesulfonamide: ~330
SMILES: CC(=O)Nc1nnc(S(N)(=O)=O)s1 [Acetazolamide]
